# Experimental data reported in patent US6949648B2, “Condensed pyrazole derivatives, process for producing the same and use thereof” (Takeda Pharmaceutical Company Limited, priority 2000, dated 2005).
# Where two headings read alike, the source gives them in different places. Marks after values point to notes of the source that are not given here.
# Experiments:
# adjuvant arthritis = assay: Anti-adjuvant-arthritic activity; assay type: in vivo, SD rats; conditions: 10 mg/kg orally once a day for 14 days; volume of left hind limb (not injected); day of reading not given
# Description: Anti-Adjuvant-Arthritic Activity
# Male SD origin male-rats (6 weeks old, CLEA Japan, 1 group: n=7) were used. The adjuvant arthritis method was conducted according to the method of Newbould B. B. et. al., (Brit. J. Pharmacol. Chemother., vol. 21, p. 127, 1963). Complete Freund's adjuvant (a suspension of killed tubercule bacillus in liquid paraffin at a concentration of 0.5%, 0.05 mL) was injected into the right hind limb footpad intracutaneouly to induce multiple arthritis. Samples were administered orally (10 mg/kg, b.w.), once a day for 14 days from the day before the injection day 0 to day 13. Volume of the left hind limb (not injected) was determined by the foot-volume measurement apparatus manufactured by Ugo Basile, on the day just before the adjuvant shot (Day 0), Day 10 and Day 14, and repression rate (%) was calculated comparing the values between the sample group and the control group.
# human COX-1 = molecular target: T1, human COX-1 (Homo sapiens, UniProt P23219); assay: Determination of COX-1 inhibitory activity (microsome fraction, chemiluminescence); assay type: biochemical; conditions: microsome fraction 40 μg, arachidonic acid, 37° C. 25 minutes preincubation; read-out: Repression rate IC50 (μM) COX-1
# T1 construct: made in house; host or cells: Sf-21 insect cells (recombinant baculovirus BAC-COX1, pFASTBAC1); microsome fraction
# Description: A 1.8 kb DNA fragment containing human COX-1 cDNA (FASEB J., vol. 5 (9), p. 2304-2312 (1991)) prepared by the PCR method was inserted into plasmid pFASTBAC1 (CIBCOBRL) to obtain a plasmid pFBCOX1.
# Using the plasmid pFBCOX1 and BAC-TO-BAC Baculovirus Expression System (GIBCOBRL), a virus stock BAC-COX1 of the recombinant baculovirus was prepared.
# Sf-21 cells were inoculated in 125 mL of Sf-900 II SFM medium (GIBCOBRL) at a concentration of 1×10^6 cells/mL, and the medium was incubated at 27° C. for 24 hours. 0.75 mL of the virus stock BAC-COX1 of the recombinant baculovirus was added thereto, and the mixture was incubated further for 72 hours. The cells were separated from the medium by centrifugation (3000 rpm, 10 min), and washed with PBS twice. The cells were suspended in 10 mL of a Lysis buffer (0.1M Tris-HCl (pH 7.4), 5 mM EDTA), and were treated with a homogenizer (POLYTRON) three times at 20000 rpm for 20 seconds so that the cells were crushed. The supernatant obtained after centrifugation (2000 rpm, 10 minutes) was further centrifuged (40000 rpm, 45 minutes) to give a precipitate, which was resuspended in a Lysis buffer (0.1M Tris-HCl (pH 7.4), 5 mM EDTA), and the suspension was stored at −80° C.
# Determination of COX-1 and COX-2 Inhibitory Activities
# To a mixture of 20 μL of a reaction buffer previously concentrated 10 times (1M Tris-HCl (pH8.0), 50 mM EDTA, 1.0% Tween 20, 50 mM luminol, 100 μM hematin), 20 μL of the microsome fractions (COX-1: 40 μg, COX-2: 20 μg), and 55 μL of distilled water, a sample compound dissolved in DMF (5 μL) was added, and the mixture was left at 37° C. for 25 minutes. The reaction was started by the addition of 20 μM arachidonic acid (100 μL), and chemiluminescence amount during the 10-second period after the addition of arachidonic acid was determined by the use of Lumistar (BMG Lab technologies, GmbH). The inhibition rate was calculated, regarding that the enzyme activity when DMF ([…]) was added was 100%, and the enzyme activity when 4 mM flurbiprofen (5 μL) was added was 0%.
# [1] = system: carrageenin edema of right hind limb plantar; assay: Anti-inflammatory activity, carrageenin edema method; assay type: in vivo, SD-rats; conditions: po
# Summary of the method: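 Male 6-week-old SD rats (n=6/group) dosed orally with sample, then 5 mL water; controls got solvent only. One hour later, 0.05 mL 1% carrageenin was injected subcutaneously into the right hind paw. Paw volume measured before and 2 and 3 h after injection; % inhibition versus control calculated.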
# gastric mucosa = assay: Disorder of gastric mucosa; assay type: in vivo, SD rats; conditions: stomach, 300 mg/kg orally, fasted rats, 6 hours after dosing
# Description: Disorder of Gastric Mucosa
# Male SD origin male-rats (7 weeks old, CLEA Japan) were used. After 24 hours from the termination of food supply, samples were orally administered (5 mL/kg, b.w.). After 5.5 hours, Evan's Blue (0.5% Evan's Blue/saline) was injected intravenously (1 mL/rat) under no anesthesia. After 30 minutes from the shot, the stomach (with esophagus and duodenum of 1.5 to 2 cm length) was removed by celiotomy, and subsequently, the esophagus terminal was closed with a clip, and a 8 mL of 1% formalin solution was injected into the stomach through the duodenum, which was also closed with a clip after the injection. The stomach was left contacting with the 1% formalin solution for more than 10 minutes, and subsequently cut open from duodenum along the greater curvature of stomach. The stomach was washed and spread on a filter paper, and the length of each of the spots dyed by Evan's Blue (hemorrhagic portion: mucosal ablation to ulcer) was measured under a stereomicroscope, and the total length (mm) was calculated by a counter and recorded.
# [2] = 10 mg/kg orally, 2 hr after carrageenin injection, read-out: Repression rate (%) Dosage 10 mg/kg 2 hr later
# [3] = 10 mg/kg orally, 3 hr after carrageenin injection, read-out: Repression rate (%) Dosage 10 mg/kg 3 hr later
# T1 sequence (P23219 24-599): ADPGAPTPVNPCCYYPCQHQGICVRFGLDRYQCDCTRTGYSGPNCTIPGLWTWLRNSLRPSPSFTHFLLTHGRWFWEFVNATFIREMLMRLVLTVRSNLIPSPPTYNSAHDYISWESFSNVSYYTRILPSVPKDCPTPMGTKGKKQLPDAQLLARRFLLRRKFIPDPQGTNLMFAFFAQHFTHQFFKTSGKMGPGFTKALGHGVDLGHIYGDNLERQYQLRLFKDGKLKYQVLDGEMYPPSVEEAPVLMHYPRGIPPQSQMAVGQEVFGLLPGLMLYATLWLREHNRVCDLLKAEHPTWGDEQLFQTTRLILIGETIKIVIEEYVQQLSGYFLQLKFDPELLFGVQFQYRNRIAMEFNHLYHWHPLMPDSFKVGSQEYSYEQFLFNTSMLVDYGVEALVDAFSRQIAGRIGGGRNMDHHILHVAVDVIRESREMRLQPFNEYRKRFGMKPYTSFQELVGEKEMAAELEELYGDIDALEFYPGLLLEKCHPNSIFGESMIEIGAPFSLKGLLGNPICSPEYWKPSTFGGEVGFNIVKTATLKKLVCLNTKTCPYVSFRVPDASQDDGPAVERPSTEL
IC50 (human COX-1) [µM],melting point [°C],SMILES,Repression rate (%) Dosage 10 mg/kg (adjuvant arthritis),"inhibition in vivo at 10 mg/kg [1, 2] [%]","inhibition in vivo at 10 mg/kg [1, 3] [%]",Total length of dyed spots (mm) (gastric mucosa),"inhibition in vivo at 10 mg/kg ([1]; 2 h, read-out: Repression rate (%) Dosage 10 mg/kg 2 hr later) [%]","inhibition in vivo at 10 mg/kg ([1]; 3 h, read-out: Repression rate (%) Dosage 10 mg/kg 3 hr later) [%]"
7.28,,"CCCOc1c2ccccc2nc2c1c(C)nn2-c1ccccn1 [Example 2-17, 3-Methyl-4-propoxy-1-(2-pyridinyl)-1H-pyrazolo[3,4-b]quinoline]",61* %,45,37,,,
21.7,121 to 122,"CCCNc1c2ccccc2nc2c1c(C)nn2-c1ccccn1 [Example 2-6, N-[3-Methyl-1-(2-pyridinyl)-1H-pyrazolo[3,4-b]quinolin-4-yl]-N-propylamine]",,43,35,,,

# The next lines start with the molecule.
SMILES,IC50 (human COX-1) [µM],melting point [°C],Repression rate (%) Dosage 10 mg/kg (adjuvant arthritis),"inhibition in vivo at 10 mg/kg [1, 2] [%]","inhibition in vivo at 10 mg/kg [1, 3] [%]",Total length of dyed spots (mm) (gastric mucosa),"inhibition in vivo at 10 mg/kg ([1]; 2 h, read-out: Repression rate (%) Dosage 10 mg/kg 2 hr later) [%]","inhibition in vivo at 10 mg/kg ([1]; 3 h, read-out: Repression rate (%) Dosage 10 mg/kg 3 hr later) [%]"
"O=c1c2ccccc2[nH]c2c1cnn2-c1ccccn1 [Example 2-159, 1-(2-Pyridinyl)-1,9-dihydro-4H-pyrazolo[3,4-b]quinolin-4-one]",2.66,240 to 242,,50,39,0 (300 mg/kg) mm,,
"Cc1nn(-c2ccccn2)c2[nH]c3cccc(F)c3c(=O)c12.Cl [Example 2-79, 5-Fluoro-3-methyl-1-(2-pyridinyl)-1,9-dihydro-4H-pyrazolo[3,4-b]quinolin-4-one hydrochloride]",7.8,> 380,,,,0 (300 mg/kg) mm,37,33
"Cc1nn(-c2ccccn2)c2nc3ccccc3c(OC3CCCC3)c12 [Example 2-21, 4-Cyclopentyloxy-3-methyl-1-(2-pyridinyl)-1H-pyrazolo[3,4-b]quinoline]",4.21,,,52,45,,,
